The values that follow come from patent publication US20210317113A1, “1,2,3-TRIAZOLE DERIVATIVES AND USES THEREOF” (Alxerion Biotech LLC, priority 2020, published 2021).

In one experiment the test system is fibrinolysis mediated by tPA (plasminogen activation by tPA). In words: Fibrinolytic assay: one-step spectrophotometric clot lysis in human plasma. The experiment is classed as biochemical. To be noted: concentration at which 50% of total fibrinolysis mediated by tPA is inhibited; human ACD plasma, clot triggered by TF, absorbance 340 nm; read-out: Anti-fibrinolytic (SERPIN) Activity IC50. As for the experimental part:
Fibrinolytic activity in human plasma was determined by a one-step spectrophotometric method (Gidron et al. (1978) J. Clin. Pathol. 31(1):54-57) with minor modifications (see EXAMPLE 2). In this method, fibrin clot formation in anticoagulant citrate dextrose (ACD) plasma samples obtained from healthy volunteers is triggered by tissue factor (TF) and can be quantified by spectrometry as a significant increase in basal plasma absorbance at 340 nm.
As shown in FIGS. 2A-2D, in the absence of tPA, plasma absorbance remains permanently elevated.
Fibrinolytic activity in human plasmas in the presence of derivatives according to the disclosure was determined by a one-step spectrophotometric method.
Fibrin clot formation in the anticoagulant acid citrate dextrose (ACD)-treated plasma obtained from healthy volunteers is triggered by tissue factor (TF) (Thromborel S, Siemens Healthineers) and quantifies by spectrophotometry at 340 nm (using a Molecular Devices SpectraMax® M2e Multimode Microplate Reader). When recombinant human Tissue Plasminogen Activator (tPA, final concentration of 5.2 μg/ml) is simultaneously added, fibrinolysis of the clot can be determined.
Fresh blood was extracted from healthy volunteers. ACD, to reach a 10% concentration, was instantly added to the extracted blood, to prevent any unwanted coagulation. After that, blood was centrifuged for 15 min at 1,000 g. Plasma was clearly separated from red blood cells. 3 mL aliquots of aspirated plasma were immediately frozen at −20° C.
4 mL of ddH2O was added to a vial of Thromborel S and mixed thoroughly for 2 min. and left at 4° C. 500 μL TF aliquots were used for each experiment.
Representative derivatives of the present disclosure (Nos. 1, 5, and 7) were diluted in DMSO (those with Boc) or ddH2O (those with HCl) to a final concentration of 10 mM. A solution containing 1 M Tris HCl, pH 7.5 (Fisher BioReagent) (Buffer A), 0.110 g of CaCl2) in 10 mL of ddH2O (Buffer B), and tPA (Abcam, 1.3 mg/mL added into the diluted derivative solution, final concentration in serum was 5.2 μg/mL), and the derivative was prepared in a total volume of 75 μL and added to untreated, flat, clear Costar® 96-well plates in triplicate. Absorbance at 340 nm at 37° C. for 30 min was recorded every 15 sec. The plates were shaken every 3 sec in between readings. Controls for basal plasma absorbance, basal coagulation absorbance and basal fibrinolytic activity absorbance were performed in every assay.
FIG. 2A show the results a control experiment displaying the ability of TF to cause fibrin clot formation in the absence and presence of t-PA. TF was able to cause fibrin clot formation evaluated as a significant increase of the basal plasma absorbance at 340 nm.
For the molecule `O=c1[nH]nc(-c2cn(C3CCNCC3)nn2)o1` [compound 12, 5-(1-(piperidin-4-yl)-1H-1,2,3-triazol-4-yl)-1,3,4-oxadiazol-2(3H)-one], the IC50 was 25 µM.
`NC1CCC(n2cc(C(=O)O)nn2)CC1` (stereo not shown) [Derivative 29]: the IC50 is 67 µM.
Still for that read-out and setting: with `NCCn1cc(C/C(N)=N\O)nn1` [Derivative 28] the figure was 23 µM; with `NCCCn1cc(-c2nnc(C(=O)O)o2)nn1` [Derivative 22], 50 µM; with `NCCn1ccnn1` [Derivative 32], 35 µM.
As to `NCCCn1cc(C(=O)O)nn1` [Derivative 13], the IC50 came out at 75 µM.
Still for that read-out and setting: with `N/C(=N\O)c1cn(C2CCC(N)CC2)nn1` (stereo not shown) [Derivative 25] the figure was 205 µM; with `N/C(Cc1cn(C2CCNCC2)nn1)=N/O` [Derivative 10], 150 µM; with `NCCn1cc(-c2n[nH]c(=O)o2)nn1` [Derivative 18], 250 µM.
On to `NCCCn1cc(-c2noc(=O)[nH]2)nn1` [Derivative 6], for which the IC50 amounted to 375 µM.
`NC(NO)c1cn(C2CCNCC2)nn1` (stereo not shown) [Derivative 7]: the IC50 worked out at 125 µM.
On the same count and under the same terms, next, `NCCCn1ccnn1` [Derivative 14]: 130 µM.
On to `NC1CCC(n2ccnn2)CC1` (stereo not shown) [Derivative 31], for which the IC50 was determined as 74 µM.
With `N=C(N)c1cn(CCN)nn1` [Derivative 36], the IC50 is 119 µM.
For `N=C(N)c1cn(C2CCC(N)CC2)nn1` (stereo not shown) [Derivative 35], the IC50 was 290 µM.
Turning to `NCCCn1cc(/C(N)=N/O)nn1` [Derivative 8], the IC50 turned out to be 350 µM.

Staying with this experiment, now noted: different concentrations, FIGS. 2B-2D.
Consider `NC(NO)c1cn(C2CCNCC2)nn1` (stereo not shown) [Derivative 7], for which the “inhibition of fibrinolysis mediated by tPA (in words)” value was “completely inhibit fibrinolysis”.

Another experiment concerns Non-Small Lung Cancer Cells (NSLCs). The experiment can be described thus: Trypan Blue Exclusion Test of cancer cell viability. It is filed as cell-based. Conditions: defined in text as concentration of derivative causing greater than 90% of the cells to die; read-out: Anti-Cancer Activity (Trypan Blue Exclusion Assay) IC50. As for the experimental part:
The ability of 1,2,3-triazole derivatives according to the disclosure to kill cancer cells can be measured, e.g., by Trypan Blue Exclusion Assay which measured cell death by starvation due to the presence of the derivative (see EXAMPLE 4). The results obtained using this assay with some representative 1,2,3-triazole derivatives according to the disclosure are shown below in Table 4.
The effect of Derivative 1 on cancer cell viability was determined using the Trypan Blue Exclusion Test (Stober (2001) (Curr. Protoc. Immunol., May; Appendix 3:Appendix 3B. doi: 10.1002/0471142735.ima03bs21). The viability of Non-Small Lung Cancer Cells (NSLCs) was assessed over a period of 15 days after the promotion of coagulation with or without 200 μM of 1,2,3-triazole derivative 1 and with or without 2% human plasma. Fresh 2% FBS medium corresponding to each condition was added every 3 days. Cell death was analyzed using Trypan blue staining. 2% FBS medium was used as control. Some representative results are shown in FIGS. 4A-4F.
Turning to `O=c1[nH]nc(-c2cn(C3CCNCC3)nn2)o1` [compound 12, 5-(1-(piperidin-4-yl)-1H-1,2,3-triazol-4-yl)-1,3,4-oxadiazol-2(3H)-one], the IC50 was determined as 110 µM.
Still for that read-out and setting: with `NC1CCC(n2cc(C(=O)O)nn2)CC1` (stereo not shown) [Derivative 29] the figure was 218 µM; with `NCCn1cc(C/C(N)=N\O)nn1` [Derivative 28], 140 µM.
For `NCCCn1cc(-c2nnc(C(=O)O)o2)nn1` [Derivative 22], the IC50 is 210 µM.
On the same count and under the same terms, next, `NCCn1ccnn1` [Derivative 32]: 101 µM; `NCCCn1cc(C(=O)O)nn1` [Derivative 13]: 170 µM; `N/C(=N\O)c1cn(C2CCC(N)CC2)nn1` (stereo not shown) [Derivative 25]: 610 µM.
With `N/C(Cc1cn(C2CCNCC2)nn1)=N/O` [Derivative 10], the IC50 worked out at 370 µM.
Same read-out and setting: with `NCCn1cc(-c2n[nH]c(=O)o2)nn1` [Derivative 18] the figure was 550 µM.
Take `NCCCn1cc(-c2noc(=O)[nH]2)nn1` [Derivative 6]: the IC50 worked out at 800 µM.
As for `NC(NO)c1cn(C2CCNCC2)nn1` (stereo not shown) [Derivative 7], the IC50 was found to be 415 µM.
The same measure, in the same setting: next, `NCCCn1ccnn1` [Derivative 14]: 450 µM; `NC1CCC(n2ccnn2)CC1` (stereo not shown) [Derivative 31]: 310 µM; `N=C(N)c1cn(CCN)nn1` [Derivative 36]: 415 µM.
Same read-out and setting: with `N=C(N)c1cn(C2CCC(N)CC2)nn1` (stereo not shown) [Derivative 35] the figure was 670 µM; with `NCCCn1cc(/C(N)=N/O)nn1` [Derivative 8], 750 µM.

The test system is the same in a further experiment. In words: Cancer migration (wound healing) assay. The experiment is classed as cell-based. To be noted: wound healing assay, dose-response curve; read-out: Anti-Cancer Activity (Inhibition of Cancer Cell Migration) IC50. An excerpt: The ability of 1,2,3-triazole derivatives according to the disclosure to inhibit cancer cell migration and proliferation in vitro can be measured, e.g., by a wound healing assay (Rodriguez et al., in Cell Migration: Developmental Methods and Protocols, Web et al., Guan ed. Humana Press 294, 23-29). This assay is based on the observation that, upon the creation of an artificial gap on a confluent cancer cell monolayer, the cells on the edge of the created gap will start migrating and proliferating until new cell-cell contacts are established (EXAMPLE 3).
Non-Small Lung Cancer Cells (NSLCs) migration rate was assessed in an in vitro wound healing assay. This assay is based on the observation that, upon the creation of an artificial gap on a confluent cell monolayer, the cells on the edge of the created gap will start migrating and proliferating until new cell-cell contacts are established.
A confluent cell layer is a prerequisite for starting this assay. Gap formation is done manually with a scrapper and cell proliferation and migration is determined recording a time-lapse video for 20 hr. with a time interval of 30 min. The microscopic pictures are manually analyzed for obtaining information about the proliferation and migration characteristics of the cultured cells and the image analysis detects the cell covered area.
NSLCs were cultured in Eagle's Minimum Essential Medium (ATCC-formulated medium, Catalog No. 30-2003) containing fetal bovine serum at 10% during several periods. Wound healing assays with supplemented medium containing 1,2,3-triazole derivatives were performed to evaluate the inhibitory effect on proliferation and migration of cancer cells.
In order to simulate as close as possible the in vivo cancer microenvironment, human plasma and calcium were added to the cell culture system to provide the hemostatic factors normally present in the cancer stroma. The previous day, cells were seeded with 10% FBS at a number that would provide 90% confluence the next day. On Day 0, a scratch (“a wound”) was performed in the middle of the well and the 10% FBS medium was replaced with 20% plasma, 20 mM calcium medium, with or without Derivative 1. 10% FBS medium was used as control in these experiments. “Wound healing” or closure of the scratch was assessed over a period of 4 days, and cell number in the wound area was quantified for each condition. Increasing amount of Derivative 1 (LTI6) was used to attain a dose-response curve.
The cell function effect of Derivative 1 was compared with Tranexamic Acid (TNA) and Caproic Acid (CA), commercially available and widely used anti-metastasis drugs.
`O=c1[nH]nc(-c2cn(C3CCNCC3)nn2)o1` [compound 12, 5-(1-(piperidin-4-yl)-1H-1,2,3-triazol-4-yl)-1,3,4-oxadiazol-2(3H)-one]: the IC50 is 65 µM.
Regarding `NC1CCC(n2cc(C(=O)O)nn2)CC1` (stereo not shown) [Derivative 29], the IC50 turned out to be 129 µM.
`NCCn1cc(C/C(N)=N\O)nn1` [Derivative 28]: the IC50 is 69 µM.
With `NCCCn1cc(-c2nnc(C(=O)O)o2)nn1` [Derivative 22], the IC50 was determined as 120 µM.
Same read-out and setting: with `NCCn1ccnn1` [Derivative 32] the figure was 101 µM.
On the same count and under the same terms, with `NCCCn1cc(C(=O)O)nn1` [Derivative 13] the figure was 125 µM.
For `N/C(=N\O)c1cn(C2CCC(N)CC2)nn1` (stereo not shown) [Derivative 25], the IC50 came to 420 µM.
The same measure, in the same setting: with `N/C(Cc1cn(C2CCNCC2)nn1)=N/O` [Derivative 10] the figure was 250 µM; with `NCCn1cc(-c2n[nH]c(=O)o2)nn1` [Derivative 18], 345 µM.
As for `NCCCn1cc(-c2noc(=O)[nH]2)nn1` [Derivative 6], the IC50 came out at 650 µM.
Still for that read-out and setting: next, `NC(NO)c1cn(C2CCNCC2)nn1` (stereo not shown) [Derivative 7]: 270 µM; `NCCCn1ccnn1` [Derivative 14]: 250 µM; `NC1CCC(n2ccnn2)CC1` (stereo not shown) [Derivative 31]: 190 µM.
As for `N=C(N)c1cn(CCN)nn1` [Derivative 36], the IC50 is 278 µM.
For the molecule `N=C(N)c1cn(C2CCC(N)CC2)nn1` (stereo not shown) [Derivative 35], the IC50 is 450 µM.
As to `NCCCn1cc(/C(N)=N/O)nn1` [Derivative 8], the IC50 turned out to be 500 µM.
